Test results taken from publication PMC11565046, “Rational design of 2H-chromene-based antiphytovirals that inhibit virion assembly by outcompeting virus capsid-RNA interactions” (iScience, 2024).
Read-outs that look alike come from different tables or passages of the source.

Legend:
PVY [1] = test: Curative activity against PVY, half-leaf method on Chenopodium amaranticolor; format: in vivo; settings: Potato virus Y, in Chenopodium amaranticolor; 500 μg/mL; Chenopodium amaranticolor leaves; average of three replicates
Description: (§1) According to previous reports,[46] PVY was infested in Nicotiana tabacum K326, and PVY was harvested and purified after showing severe infection symptoms on the leaves. The literature-guided protocol was followed to assess the curative, prophylactic, and […] potential of the target compounds under investigation.[15]
To assess the curative effectiveness against PVY, a uniform layer of 200–300 mesh emery was applied to the leaves of C. amaranticolor, followed by rubbing with a virus solution. For 1.5 h, then the emery was washed off with water. After the leaves naturally dried, a 500 μg/mL solution of the test compound was carefully applied to one side of the leaf, while the opposite side received a 1% Tween 80 solution as a control. The plants were subsequently incubated in a greenhouse maintained at 25°C. After 5−7 days, the presence of necrotic spots on the leaves was recorded, with each compound tested on three replicate plants. The average inhibition rate was determined by analyzing the data from these replications.

PVY [2] = test: Protective activity against PVY, half-leaf method on Chenopodium amaranticolor; format: in vivo; settings: Potato virus Y, in Chenopodium amaranticolor; 500 μg/mL; Chenopodium amaranticolor leaves; average of three replicates
Protocol: as §1
A 500 μg/mL solution of the targeted compound was delicately applied to one side of C. amaranticolor leaves, while the other side was treated with a 1% Tween 80 aqueous solution. The plants were positioned in a greenhouse set at 25°C. Following a 24 h period, the entire leaf surface was inoculated with PVY by uniformly distributing 200–300 mesh emery. After 1.5 h, the emery was washed off with water, and the plants were returned to the greenhouse. After 5–7 days, the number of necrotic spots was tallied, with the assessment based on the greenhouse population. Each compound was tested in triplicate, and the average inhibition rate was subsequently calculated.

PVY [3] = test: Inactivating activity against PVY, half-leaf method on Chenopodium amaranticolor; format: in vivo, potato virus Y; settings: for EC50: Potato virus Y, in Chenopodium amaranticolor
Protocol: as §1
Target compound solution (1,000 μg/mL) and 2 × virus solution were combined in equal quantities and incubated for 30 min. Evenly distribute emery onto the leaf blades, and apply the mixture of virus and compound solution onto the right side of C. amaranticolor leaf blades. Following this, an identical quantity of a 1× virus solution was applied to the untreated side of the leaf. Following a duration of 1.5 h, the emery residue present on the leaf surface was removed using a rinsing process utilizing water. The plants were incubated within a controlled greenhouse environment, maintaining a consistent temperature of 25°C. After 5−7 days, they proceeded to statistics the number of necrotic spots on the leaves. For each chemical, triplicate experiments were undertaken, and the average percentage of inhibition was subsequently determined.

PVY-GFP = test: Systemic infection of PVY-GFP in Nicotiana benthamiana (UV fluorescence, RT-qPCR); format: in vivo, potato virus Y; settings: 500 μg/mL spray, 7 dpai
Description: To evaluate the effect of C50 on PVY infection, we infiltrated the Nicotiana benthamiana plants with Agrobacterium carrying the PVY infectious clone pCamPVY-GFP. […] The RT-qPCR results for GFP were consistent with that of PVY RNA (Figure 3D).
The Nicotiana benthamiana plants were subjected to infestation by Agrobacterium tumefaciens, which carried either pCamPVY-GFP or an empty vector (mock). […] At 7 dpai, the leaves of N. benthamiana were looked at for the GFP using a LUYOR UV light (Shanghai, China), and captured in photographs. The foliage was gathered, rapidly frozen with liquid nitrogen, and subsequently preserved in a refrigerator set at a temperature of −80°C.
Leaf blades of Nicotiana benthamiana were pulverized into fine powder with the aid of liquid nitrogen, followed by the extraction of total RNA from the leaf tissue utilizing Trizol reagent (Invitrogen, California, USA). Subsequently, cDNA synthesis was conducted through reverse transcription with primers and a reverse transcription kit (Vazyme, Nanjing, China). Any potential DNA contamination was effectively removed using a gDNA wipe enzyme (Vazyme, Nanjing, China) as per the manufacturer’s guidelines. RT-qPCR analysis was carried out employing TB Green (TaKaRa, Beijing, China). Detailed information regarding the primers utilized in this investigation can be found in Table S2.

PVY CP^wt = PVY CP^wt (Potato virus Y, UniProt A0A650FPI8); test: MST assay for affinity with PVY CP^wt; format: binding
Description: Microscale thermophoresis (MST) serves as a potent technique for quantifying the strength of interactions occurring between small molecules and their respective ligands.[19]^,[20] The binding strength between specific target drugs and PVY CP^wt was investigated in vitro using MST, as depicted in Figures 5G and S3. This experimental approach aimed to acquire insights into how target compounds exert their influences against PVY. […] Similarly, the affinity of target compounds for interacting with PVY CP^S125A was tested.
The PVY CP^wt gene, the wild-type variant of the Potato Virus Y coat protein, was cloned into the pET-32a (+) prokaryotic expression vector. This recombinant vector was then thermally transformed into BL21 (DE3) bacterial host cells for subsequent protein expression. The strains above were cultivated on a liquid Luria-Bertani medium (180 rpm, 37°C). To initiate the expression of PVY CP, isopropyl β-D-1-thiogalactopyranoside (IPTG) was added to the culture medium at a concentration of […] when the optical density at 600 nm (OD600) reached a range between 0.6 and 0.8. This step triggered the production of the PVY CP protein. The induction process was maintained for 10 h (180 rpm, 16°C). The 6 × -His-S-tagged PVY CP^wt were purified using nickel-nitriloacetic acid by high-performance column affinity chromatography. Subsequently, enterokinase was employed to digest the proteins, and the desired target proteins were isolated using His-tag purification resin. Ultimately, the proteins were identified through the employment of a 12% sodium dodecyl sulfate-polyacrylamide gel electrophoresis method. The pET-32a (+) plasmid containing the PVY CP^wt gene was used as a template. […] The mutant protein was purified using the method for the purification of PVY CP^wt, which was PVY CP^S125A.
The proteins' binding affinity with target chemicals was evaluated using a Monolith NT.115 instrument (Nano Temper, Munich, Germany), utilizing established methods described in literature.[35]^,[48] A concentration of 2.0 mM was selected for the chemicals, and the proteins were tagged with the Monolith TM RED-NHS second-generation labeling kit. The MST assay analyzed the fluorescence intensity of the labeled proteins, focusing on a range from 400 to 1200 to investigate their interactions. The scanning method was conducted using an “LED power” setting of 40% and a temperature that was maintained at 25.0°C.

[4] = Chenopodium amaranticolor leaves, read-out: EC50 for inactivating activity
[5] = inactivating activity, Table S1, read-out: Experimental pEC50 (converted)

SMILES | inhibition at 500 µg/mL (PVY [1]) | inhibition at 500 µg/mL (PVY [2]) | EC50 (PVY [3]; [4]) | EC50 (PVY [3]; [5]) | melting point | EC50 for inactivating activity (PVY [3]; Chenopodium amaranticolor leaves) | EC50 (PVY [3]; read-out: EC50 for inactivating activity, Chenopodium amaranticolor leaves) | Green fluorescence under UV light (PVY-GFP; N. benthamiana, versus DMSO control) | PVY RNA accumulation level (control normalized as 100%) (PVY-GFP; systemic leaves of N. benthamiana, RT-qPCR) | Kd (PVY CP^wt)
CC1(C)C=Cc2c(ccc(/C=N/c3ccc(NS(=O)(=O)c4ccc(Cl)s4)cc3)c2O)O1 [Compound C24] | 60 to 70% | 60 to 70% | 754 ± 10.3 µg/mL | 1590 µM | 141 to 143 °C | – | – | – | – | –
CC1(C)C=Cc2c(ccc(/C=N/c3ccc(NS(=O)(=O)c4c(F)cccc4F)cc3)c2O)O1 [Compound C32] | 60 to 70% | 60 to 70% | 88.3 ± 4 µg/mL | 188 µM | 191 to 193 °C | – | – | – | – | –
Cc1c(Cl)cccc1S(=O)(=O)Nc1ccc(/N=C/c2ccc3c(c2O)C=CC(C)(C)O3)cc1 [Compound C38] | 60 to 70% | 60 to 70% | 410 ± 9.7 µg/mL | 851 µM | 193 to 195 °C | – | – | – | – | –
CC1(C)C=Cc2c(ccc(/C=N/c3ccc(NS(=O)(=O)c4ccc(Br)s4)cc3)c2O)O1 [Compound C10] | 60 to 70% | 60 to 70% | 492 ± 13.3 µg/mL | 951 µM | 140 to 142 °C | – | – | – | – | –
CCCCS(=O)(=O)Nc1ccc(/N=C/c2ccc3c(c2O)C=CC(C)(C)O3)cc1 [Compound C29] | 60 to 70% | 60 to 70% | 682 ± 10 µg/mL | 1650 µM | 132 to 134 °C | – | – | – | – | –
CNCC(=O)N[C@@H](CO)C(=O)N[C@H]1[C@H](O)[C@@H](O)[C@H](n2ccc(N)nc2=O)O[C@@H]1C(N)=O [NNM, Ningnanmycin, reference compound] | – | – | – | – | – | 75.7 ± 4.0 µg/mL | 73.7 µg/mL | noteworthy decrease in green fluorescence | 51.8% | 8.6 µM
CC1(C)C=Cc2c(ccc(/C=N/c3ccc(NS(=O)(=O)Cc4ccccc4)cc3)c2O)O1 [Compound C28] | 60 to 70% | 60 to 70% | 503 ± 12.8 µg/mL | 1120 µM | 143 to 145 °C | – | – | – | – | –
CC1(C)C=Cc2c(ccc(/C=N/c3ccc(NS(=O)(=O)c4cccc(Br)c4)cc3)c2O)O1 [Compound C16] | 60 to 70% | 60 to 70% | 688 ± 17.2 µg/mL | 1350 µM | 161 to 163 °C | – | – | – | – | –
CC1(C)C=Cc2c(ccc(/C=N/c3ccc(NS(=O)(=O)c4cc(F)cc(F)c4)cc3)c2O)O1 [Compound C26] | 60 to 70% | 60 to 70% | 100 ± 4.5 µg/mL | 213 µM | 207 to 209 °C | – | – | – | – | –
CC1(C)C=Cc2c(ccc(/C=N/c3ccc(NS(=O)(=O)c4ccc(Br)cc4)cc3)c2O)O1 [Compound C34] | 60 to 70% | 60 to 70% | 147 ± 8.3 µg/mL | 288 µM | 158 to 160 °C | – | – | – | – | –
Cc1cccc(S(=O)(=O)Nc2ccc(/N=C/c3ccc4c(c3O)C=CC(C)(C)O4)cc2)c1 [Compound C27] | 60 to 70% | 60 to 70% | 90.3 ± 7.1 µg/mL | 202 µM | 152 to 154 °C | – | – | – | – | –
CC1(C)C=Cc2c(ccc(/C=N/c3ccc(NS(=O)(=O)c4cccc(Cl)c4)cc3)c2O)O1 [Compound C36] | 60 to 70% | 60 to 70% | 557 ± 14.3 µg/mL | 1190 µM | 189 to 191 °C | – | – | – | – | –
CC(C)=CCCC1(C)C=Cc2c(ccc(/C=N/c3ccc(NS(=O)(=O)c4ccc(C)cc4)cc3)c2O)O1 (stereo not drawn) [Compound C42] | – | – | 503 ± 17 µg/mL | 975 µM | 95 to 97 °C | – | – | – | – | 497 µM
CC1(C)C=Cc2c(ccc(/C=N/c3ccc(NS(=O)(=O)c4cccc(Cl)c4F)cc3)c2O)O1 [Compound C37] | 60 to 70% | 60 to 70% | 306 ± 11 µg/mL | 631 µM | 193 to 195 °C | – | – | – | – | –
